Assay results from ChEMBL document CHEMBL1122135, “Modifications of primaquine as antimalarials. 3. 5-Phenoxy derivatives of primaquine” (J Med Chem, 1982).

What was measured:
[1] = system: Plasmodium cynomolgi; assay: Cures in Plasmodium cynomolgi infected rhesus monkey at 0.5 mg/kg; n=2; format: functional
[2] = system: Plasmodium cynomolgi; assay: Cures in Plasmodium cynomolgi infected rhesus monkey at 10 mg/kg, n=1; format: functional
[3] = system: Plasmodium cynomolgi; assay: Cures in Plasmodium cynomolgi infected rhesus monkey at 0.25 mg/kg, n=1; format: functional
[4] = system: Plasmodium cynomolgi; assay: Cures in Plasmodium cynomolgi infected rhesus monkey at 0.75 mg/kg, n=6; format: functional
[5] = system: Plasmodium cynomolgi; assay: Cures in Plasmodium cynomolgi infected rhesus monkey at 1 mg/kg, n=3; format: functional
[6] = species: Mus musculus; assay: Number of mice (Mus musculus) survived after 60 days of post infection with Plasmodium berghei; format: functional
[7] = system: Mus musculus; assay: Antimalarial activity was determined in Plasmodium berghei infected mice (Mus musculus) at 20 mg/kg dose; format: functional; design: unit not given beside the values
[8] = system: Mus musculus; assay: (§1) Antimalarial activity was determined in Plasmodium berghei infected mice (Mus musculus) at 320 mg/kg dose; format: functional; design: unit not given beside the values
[9] = system: Mus musculus; assay: Antimalarial activity was determined in Plasmodium berghei infected mice (Mus musculus) at 40 mg/kg dose; format: functional; design: unit not given beside the values
[10] = system: Mus musculus; assay: Antimalarial activity was determined in Plasmodium berghei infected mice (Mus musculus) at 80 mg/kg dose; format: functional
[11] = system: Mus musculus; assay: Antimalarial activity was determined in Plasmodium berghei infected mice (Mus musculus) at 160 mg/kg dose; format: functional
[12] = system: Plasmodium cynomolgi; assay: Cures in Plasmodium cynomolgi infected rhesus monkey at 1 mg/kg, n=1; format: functional
[13] = system: Mus musculus; assay: Antimalarial activity was determined in Plasmodium berghei infected mice (Mus musculus) at 640 mg/kg dose; format: functional
[14] = system: Plasmodium cynomolgi; assay: Cures in Plasmodium cynomolgi infected rhesus monkey at 3.16 mg/kg, n=2; format: functional
[15] = system: Mus musculus; assay: Number of mice (Mus musculus) survived after 60 days of post infection with Plasmodium berghei at a dose of 40 mg/kg; format: functional
[16] = system: Mus musculus; assay: Number of mice (Mus musculus) survived after 60 days of post infection with Plasmodium berghei at a dose of 80 mg/kg; format: functional
[17] = system: Mus musculus; assay: Number of mice (Mus musculus) survived after 60 days of post infection with Plasmodium berghei at a dose of 160 mg/kg; format: functional
[18] = system: Mus musculus; assay: Number of mice (Mus musculus) survived after 60 days of post infection with Plasmodium berghei at a dose of 20 mg/kg; format: functional
[19] = system: Mus musculus; assay: Number of toxic death was determined in Plasmodium berghei infected mice (Mus musculus) at 320 mg/kg dose; format: ADME, organism-based; design: dose 320 mg/kg; details: in vivo
[20] = system: Mus musculus; assay: Number of toxic death was determined in Plasmodium berghei infected mice (Mus musculus) at 640 mg/kg dose; format: ADME, organism-based; design: dose 640 mg/kg; details: in vivo
[21] = system: Mus musculus; assay: Antimalarial activity was determined in Plasmodium berghei infected mice (Mus musculus) at 10 mg/kg dose; format: functional
[22] = system: Mus musculus; assay: Number of mice (Mus musculus) survived after 60 days of post infection with Plasmodium berghei at a dose of 640 mg/kg; format: functional
[23] = system: Mus musculus; assay: Number of mice (Mus musculus) survived after 60 days of post infection with Plasmodium berghei at a dose of 320 mg/kg; format: functional
[24] = system: Plasmodium cynomolgi; assay: Cures in Plasmodium cynomolgi infected rhesus monkey at 3.16 mg/kg, n=1; format: functional
[25] = system: Plasmodium cynomolgi; assay: Cures in Plasmodium cynomolgi infected rhesus monkey at 0.5 mg/kg, n=1; format: functional
[26] = system: Mus musculus; assay: Number of mice (Mus musculus) survived after 60 days of post infection with Plasmodium berghei at a dose of 10 mg/kg; format: functional
[27] = system: Plasmodium cynomolgi; assay: Cures in Plasmodium cynomolgi infected rhesus monkey at 0.25 mg/kg, n=5; format: functional
[28] = system: Plasmodium cynomolgi; assay: Cures in Plasmodium cynomolgi infected rhesus monkey at 0.125 mg/kg, n=1; format: functional
[29] = system: Mus musculus; assay: as §1; format: functional
[30] = system: Plasmodium cynomolgi; assay: Cures in Plasmodium cynomolgi infected rhesus monkey at 1 mg/kg, n=2; format: functional
[31] = system: Plasmodium cynomolgi; assay: Cures in Plasmodium cynomolgi infected rhesus monkey at 0.316 mg/kg, n=4; format: functional
[32] = system: Plasmodium cynomolgi; assay: Cures in Plasmodium cynomolgi infected rhesus monkey at 0.316 mg/kg, n=2; format: functional
[33] = system: Plasmodium cynomolgi; assay: Number of cures in Plasmodium cynomolgi infected rhesus monkey at 0.25 mg/kg, n=8; format: functional
[34] = system: Plasmodium cynomolgi; assay: Cures in Plasmodium cynomolgi infected rhesus monkey at 0.125 mg/kg; n=5; format: functional
[35] = system: Plasmodium cynomolgi; assay: Cures in Plasmodium cynomolgi infected rhesus monkey at 0.5 mg/kg, n=5; format: functional
[36] = system: Plasmodium cynomolgi; assay: Cures in Plasmodium cynomolgi infected rhesus monkey at 0.75 mg/kg, n=9; format: functional
[37] = system: Plasmodium cynomolgi; assay: Cures in Plasmodium cynomolgi infected rhesus monkey at 0.5 mg/kg, n=12; format: functional
[38] = system: Mus musculus; assay: Number of toxic death was determined in Plasmodium berghei infected mice (Mus musculus) at 160 mg/kg dose; format: ADME, organism-based; design: dose 160 mg/kg; details: in vivo

| SMILES | Cures [2] | Delta MST [7] | Delta MST [8] | Delta MST [9] | Delta MST [10] | Delta MST [11] | Cures [12] | further results |
| --- | --- | --- | --- | --- | --- | --- | --- | --- |
| COc1cc(NC(C)CCCN)c2ncccc2c1Oc1ccc(Cl)cc1 (stereo not given) | 1 | 0.7 | 8.1 | 4.7 | 5.5 | 7.1 | – | Cures [1]: 0; Cures [3]: 0; Cures [4]: 5; Cures [5]: 3; Cures [6]: 2 |
| COc1ccc(Oc2c(OC)cc(NC(C)CCCN)c3ncccc23)cc1 (stereo not given) | 1 | 0.4 | 8.6 | 0.4 | 1.6 | 6 | 0 | Cure [13]: 4 |
| COc1cc(NC(C)CCCN)c2ncccc2c1Oc1ccc(Cl)cc1Cl (stereo not given) | 1 | 0.4 | 4.4 | 0.4 | 0.8 | 2.2 | – | Cures [14]: 2; Cures [5]: 0; Delta MST [13]: 10.4 |
| COc1cc(NC(C)CCCN)c2nccc(C)c2c1Oc1ccccc1 (stereo not given) | – | – | – | – | – | – | – | Cures [15]: 3; Cures [16]: 4; Cures [17]: 4; Cures [18]: 4; Toxic deaths [19]: 3; Toxic deaths [20]: 2; Delta MST [21]: 8.7 |
| COc1cc(NC(C)CCCN)c2nccc(C)c2c1Oc1cc(C(F)(F)F)cc(C(F)(F)F)c1 (stereo not given) | – | 4.3 | – | – | – | – | – | Cures [15]: 3; Cures [22]: 5; Cures [16]: 5; Cures [17]: 5; Cures [23]: 5; Delta MST [21]: 1.7 |
| COc1cc(NC(C)CCCN)c2ncccc2c1Oc1cc(C(F)(F)F)cc(C(F)(F)F)c1 (stereo not given) | 1 | 0.7 | 6.3 | 0.3 | 0.3 | 1.5 | 0 | Cures [24]: 1; Delta MST [13]: 7.9 |
| COc1cc(NC(C)CCCN)c2ncccc2c1Oc1ccc(OC(F)(F)F)cc1 (stereo not given) | 1 | -0.3 | 0.7 | -0.3 | -0.3 | 0.5 | 0 | Toxic deaths [20]: 1 |
| COc1cc(NC(C)CCCN)c2ncccc2c1Oc1ccc(NC(C)=O)cc1 (stereo not given) | – | – | – | – | – | – | 0 | Cures [25]: 0 |
| COc1cc(NC(C)CCCN)c2nccc(C)c2c1Oc1ccc(F)c(C(F)(F)F)c1 (stereo not given) | – | – | – | – | – | – | – | Cures [15]: 5; Cures [22]: 5; Cures [16]: 5; Cures [26]: 1; Cures [17]: 5; Cures [18]: 1; Cures [23]: 5 |
| COc1cc(NC(C)CCCN)c2ncccc2c1Oc1cccc(C(F)(F)F)c1 (stereo not given) | – | 0.5 | 13.5 | 1.3 | 4.1 | 7.1 | 1 | Cures [1]: 2; Cures [27]: 3; Cures [28]: 0; Cures [13]: 5 |
| COc1cc(NC(C)CCCN)c2ncc(C)cc2c1Oc1ccc(F)c(C(F)(F)F)c1 (stereo not given) | – | 5.9 | 4 | 9.9 | 4 | 5 | – | Toxic deaths [20]: 1 |
| COc1cc(NC(C)CCCN)c2ncccc2c1Oc1ccc(Cl)c(Cl)c1 (stereo not given) | 1 | 1.2 | – | 0.8 | 0.4 | 6 | – | Cures [14]: 2; Cures [5]: 1; Cures [29]: 1; Cures [13]: 1 |
| COc1cc(NC(C)CCCN)c2ncccc2c1Oc1ccccc1 (stereo not given) | – | 0.3 | 7.5 | 1.5 | 1.7 | 5.1 | – | Cures [6]: 2 |
| COc1cc(NC(C)CCCN)c2nccc(C)c2c1 (stereo not given) | – | – | 10 | – | – | 9 | – | Cures [30]: 2; Cures [31]: 0; Toxic deaths [20]: 1 |
| COc1cc(NC(C)CCCN)c2ncccc2c1Oc1ccc(F)c(C(F)(F)F)c1 (stereo not given) | – | -0.2 | 12.2 | 0.8 | 3.4 | 4.6 | 1 | Cures [32]: 2; Cures [13]: 2 |
| COc1cc(NC(C)CCCN)c2ncccc2c1Oc1ccc(F)cc1 (stereo not given) | – | – | 8.9 | 2.1 | 5.7 | 7.5 | – | Cures [33]: 3; Cures [34]: 0; Cures [35]: 5; Cures [6]: 5 |
| COc1cc(NC(C)CCCN)c2ncccc2c1 (stereo not given) [PRIMAQUINE] | – | 4 | – | 5 | 9.4 | – | – | Cures [32]: 0; Cures [33]: 0; Cures [36]: 9; Cures [37]: 10; Toxic deaths [38]: 2; Toxic deaths [19]: 5; Toxic deaths [20]: 5 |
